# Measurements published in BigSolDB 2.1.
smiles,measurement,setting,value
OCc1ccc(O[C@@H]2O[C@H](CO)[C@@H](O)[C@H](O)[C@H]2O)cc1,solubility (mole fraction),"in 1,4-dioxane, 288.15 K",0.00324
same,solubility (mole fraction),"in 1,4-dioxane, 293.15 K",0.00373
same,solubility (mole fraction),"in 1,4-dioxane, 298.15 K",0.0043
same,solubility (mole fraction),"in 1,4-dioxane, 303.15 K",0.00493
same,solubility (mole fraction),"in 1,4-dioxane, 308.15 K",0.00562
same,solubility (mole fraction),"in 1,4-dioxane, 313.15 K",0.0063
same,solubility (mole fraction),"in acetone, 273.15 K",0.00097
same,solubility (mole fraction),"in acetone, 278.15 K",0.00117
same,solubility (mole fraction),"in acetone, 283.15 K",0.00142
same,solubility (mole fraction),"in acetone, 288.15 K",0.00171
same,solubility (mole fraction),"in acetone, 293.15 K",0.00199
same,solubility (mole fraction),"in acetone, 298.15 K",0.00233
same,solubility (mole fraction),"in acetone, 303.15 K",0.00273
same,solubility (mole fraction),"in acetone, 308.15 K",0.00318
same,solubility (mole fraction),"in acetone, 313.15 K",0.00368
same,solubility (mole fraction),"in acetonitrile, 273.15 K",0.00066
same,solubility (mole fraction),"in acetonitrile, 278.15 K",0.00076
same,solubility (mole fraction),"in acetonitrile, 283.15 K",0.00088
same,solubility (mole fraction),"in acetonitrile, 288.15 K",0.001
same,solubility (mole fraction),"in acetonitrile, 293.15 K",0.00115
same,solubility (mole fraction),"in acetonitrile, 298.15 K",0.0013
same,solubility (mole fraction),"in acetonitrile, 303.15 K",0.00147
same,solubility (mole fraction),"in acetonitrile, 308.15 K",0.00166
same,solubility (mole fraction),"in acetonitrile, 313.15 K",0.00188
same,solubility (mole fraction),"in cyclohexane, 273.15 K",0.000383
same,solubility (mole fraction),"in cyclohexane, 278.15 K",0.000624
same,solubility (mole fraction),"in cyclohexane, 283.15 K",0.000909
same,solubility (mole fraction),"in cyclohexane, 288.15 K",0.00125
same,solubility (mole fraction),"in cyclohexane, 293.15 K",0.0016
same,solubility (mole fraction),"in cyclohexane, 298.15 K",0.00213
same,solubility (mole fraction),"in cyclohexane, 303.15 K",0.00261
same,solubility (mole fraction),"in cyclohexane, 308.15 K",0.00326
same,solubility (mole fraction),"in cyclohexane, 313.15 K",0.00396
same,solubility (mole fraction),"in cyclohexanone, 273.15 K",0.00128
same,solubility (mole fraction),"in cyclohexanone, 278.15 K",0.00152
same,solubility (mole fraction),"in cyclohexanone, 283.15 K",0.00185
same,solubility (mole fraction),"in cyclohexanone, 288.15 K",0.0022
same,solubility (mole fraction),"in cyclohexanone, 293.15 K",0.00257
same,solubility (mole fraction),"in cyclohexanone, 298.15 K",0.00299
same,solubility (mole fraction),"in cyclohexanone, 303.15 K",0.00344
same,solubility (mole fraction),"in cyclohexanone, 308.15 K",0.00396
same,solubility (mole fraction),"in cyclohexanone, 313.15 K",0.00455
same,solubility (mole fraction),"in ethanol, 273.15 K",0.00085
same,solubility (mole fraction),"in ethanol, 278.15 K",0.00105
same,solubility (mole fraction),"in ethanol, 283.15 K",0.00129
same,solubility (mole fraction),"in ethanol, 288.15 K",0.00157
same,solubility (mole fraction),"in ethanol, 293.15 K",0.00188
same,solubility (mole fraction),"in ethanol, 298.15 K",0.0022
same,solubility (mole fraction),"in ethanol, 303.15 K",0.00255
same,solubility (mole fraction),"in ethanol, 308.15 K",0.00296
same,solubility (mole fraction),"in ethanol, 313.15 K",0.00337
same,solubility (mole fraction),"in ethyl acetate, 273.15 K",0.00174
same,solubility (mole fraction),"in ethyl acetate, 278.15 K",0.002
same,solubility (mole fraction),"in ethyl acetate, 283.15 K",0.00234
same,solubility (mole fraction),"in ethyl acetate, 288.15 K",0.00274
same,solubility (mole fraction),"in ethyl acetate, 293.15 K",0.00318
same,solubility (mole fraction),"in ethyl acetate, 298.15 K",0.00364
same,solubility (mole fraction),"in ethyl acetate, 303.15 K",0.00418
same,solubility (mole fraction),"in ethyl acetate, 308.15 K",0.00481
same,solubility (mole fraction),"in ethyl acetate, 313.15 K",0.00543
same,solubility (mole fraction),"in isopropanol, 273.15 K",0.00114
same,solubility (mole fraction),"in isopropanol, 278.15 K",0.00139
same,solubility (mole fraction),"in isopropanol, 283.15 K",0.00169
same,solubility (mole fraction),"in isopropanol, 288.15 K",0.002
same,solubility (mole fraction),"in isopropanol, 293.15 K",0.00235
same,solubility (mole fraction),"in isopropanol, 298.15 K",0.00271
same,solubility (mole fraction),"in isopropanol, 303.15 K",0.00312
same,solubility (mole fraction),"in isopropanol, 308.15 K",0.00356
same,solubility (mole fraction),"in isopropanol, 313.15 K",0.00403
same,solubility (mole fraction),"in n-butanol, 273.15 K",0.0368
same,solubility (mole fraction),"in n-butanol, 278.15 K",0.0395
same,solubility (mole fraction),"in n-butanol, 283.15 K",0.0423
same,solubility (mole fraction),"in n-butanol, 288.15 K",0.0454
same,solubility (mole fraction),"in n-butanol, 293.15 K",0.0486
same,solubility (mole fraction),"in n-butanol, 298.15 K",0.0521
same,solubility (mole fraction),"in n-butanol, 303.15 K",0.0557
same,solubility (mole fraction),"in n-butanol, 308.15 K",0.0595
same,solubility (mole fraction),"in n-butanol, 313.15 K",0.0633
same,solubility (mole fraction),"in n-propanol, 273.15 K",0.00074
same,solubility (mole fraction),"in n-propanol, 278.15 K",0.00094
same,solubility (mole fraction),"in n-propanol, 283.15 K",0.00115
same,solubility (mole fraction),"in n-propanol, 288.15 K",0.00138
same,solubility (mole fraction),"in n-propanol, 293.15 K",0.00165
same,solubility (mole fraction),"in n-propanol, 298.15 K",0.00194
same,solubility (mole fraction),"in n-propanol, 303.15 K",0.00226
same,solubility (mole fraction),"in n-propanol, 308.15 K",0.00262
same,solubility (mole fraction),"in n-propanol, 313.15 K",0.00301
same,solubility (mole fraction),"in toluene, 273.15 K",0.00148
same,solubility (mole fraction),"in toluene, 278.15 K",0.0018
same,solubility (mole fraction),"in toluene, 283.15 K",0.00212
same,solubility (mole fraction),"in toluene, 288.15 K",0.00248
same,solubility (mole fraction),"in toluene, 293.15 K",0.00288
same,solubility (mole fraction),"in toluene, 298.15 K",0.0033
same,solubility (mole fraction),"in toluene, 303.15 K",0.00378
same,solubility (mole fraction),"in toluene, 308.15 K",0.00431
same,solubility (mole fraction),"in toluene, 313.15 K",0.00493
